Data reported in patent US20250333394A1, “Tiparp Inhibitor Compounds” (AbbVie Inc., priority 2024, published 2025).
Read-outs that look alike come from different tables or passages of the source.

What was measured:
TIPARP GST-(TEV) = TIPARP GST-(TEV) (Homo sapiens (Human), UniProt Q7Z3E1); experiment: TR-FRET binding assay, TIPARP; settings: for IC50: TR-FRET, Probe 1, 2 hours incubation; for PARP1/TIPARP IC50 Ratio: ratio of PARP1 GST IC50 to TIPARP GST-(TEV) IC50
Source text: The full-length cDNA encoding the human TIPARP (NP_001171647.1, UniProtKB-Q7Z3E1) of 657 amino acids was the template to generate the expression construct. […] The TIPARP fusion protein includes GST, glutathione S-transferase, a 26 kDa protein whose DNA sequence is frequently integrated into expression vectors for production of recombinant proteins. A […], was cloned into vector pFastBacTM 1 (Thermo Fisher Scientific) with an N-terminal GST tag followed by a TEV protease site to produce the TIPARP fusion protein, TIPARP GST-(TEV). TR-FRET assays were used to measure the binding of compounds to TIPARP and PARP1, and to characterize biochemical selectivity. Compound stock solutions (10 mM) were serially diluted in 3-fold increments in dimethyl sulfoxide (DMSO). Diluted compounds were dispensed (30 nL) into white ProxiPlate-384-well plates (PerkinElmer, Waltham, MA, USA) using an ECHO® 550 acoustic Labcyte dispenser (Beckman-Coulter Life Sciences, Indianapolis, IN, USA) to achieve a final starting concentration of 30 μM to 0.5 nM in the assay. This was followed by addition of 5 μL of 2× protein/probe mix (Table 2) made in assay buffer (Tris-HCl 50 mM pH 8.0; 5 mM MgCl2; 5 μM ZnCl2; 1 mM DTT (dithiothreitol); 0.15% BSA (bovine serum albumin) (w/v); and 0.01% TritonX-100 (w/v)) at final concentrations listed in Table 2. Subsequently, 5 μL of 2× antibody (Tb-labeled anti-GST antibody, Thermo Fisher Scientific, Waltham, MA, USA) in HEPES buffered saline was added to each well at a final concentration of 1 nM. The samples were then incubated for 2 hours under ambient conditions. Fluorescence was measured and TR-FR ET ratios were determined on an EnVision multimode plate reader (PerkinElmer) using a 520 nanometer (nm) excitation wavelength and collecting fluorescence emission at 495 nm. […] [table]

PARP1 GST = PARP1 GST (Homo sapiens (Human), UniProt P09874); experiment: TR-FRET binding assay, PARP1; settings: Probe 2, 2 hours incubation
Experimental: TR-FRET assays were used to measure the binding of compounds to TIPARP and PARP1, and to characterize biochemical selectivity. Compound stock solutions (10 mM) were serially diluted in 3-fold increments in dimethyl sulfoxide (DMSO). Diluted compounds were dispensed (30 nL) into white ProxiPlate-384-well plates (PerkinElmer, Waltham, MA, USA) using an ECHO® 550 acoustic Labcyte dispenser (Beckman-Coulter Life Sciences, Indianapolis, IN, USA) to achieve a final starting concentration of 30 μM to 0.5 nM in the assay. This was followed by addition of 5 μL of 2× protein/probe mix (Table 2) made in assay buffer (Tris-HCl 50 mM pH 8.0; 5 mM MgCl2; 5 μM ZnCl2; 1 mM DTT (dithiothreitol); 0.15% BSA (bovine serum albumin) (w/v); and 0.01% TritonX-100 (w/v)) at final concentrations listed in Table 2. Subsequently, 5 μL of 2× antibody (Tb-labeled anti-GST antibody, Thermo Fisher Scientific, Waltham, MA, USA) in HEPES buffered saline was added to each well at a final concentration of 1 nM. The samples were then incubated for 2 hours under ambient conditions. Fluorescence was measured and TR-FR ET ratios were determined on an EnVision multimode plate reader (PerkinElmer) using a 520 nanometer (nm) excitation wavelength and collecting fluorescence emission at 495 nm.

NCI-H1373 cells = experiment: NCI-H1373 CellTiter-Glo cell assay for TIPARP inhibition; format: cell-based, human; settings: 6 days, 100 nM 10-Cl-BBQ in medium, read-out: NCI-H1373 CTG EC50
Experimental: The NCI-H1373 CellTiter-Glo® assay was used to determine cell numbers after TIPARP inhibition-induced cell cycle arrest, and enabled screening of compounds for cellular TIPARP inhibition potency.
Compound stock solutions (10 mM) were serially diluted in 3-fold increments in dimethyl sulfoxide. Sample aliquots (120 nL) were dispensed into Corning® 384-well Flat Clear Bottom White Polystyrene TC-treated Microplates (Corning Life Sciences, Corning, NY, USA) using an ECHO® 550 acoustic Labcyte dispenser (Beckman-Coulter Life Sciences, Indianapolis, IN, USA) to achieve final concentrations between 30 μM and 0.5 nM in the assay. This was followed by the addition of 40 μL of 1000 NCI-H1373 cells (ATCC®, Manassas, VA, USA) in complete growth medium RPMI 1640 growth medium (Thermo Fisher Scientific, Waltham, MA, USA) supplemented with 20 mg/L L-glutamate, 25 mM HEPES (4-(2-hydroxyethyl)-1-piperazineethanesulfonic acid), 10% (v/v) heat inactivated FBS (fetal bovine serum), 1% (w/v) penicillin-streptomycin, and 100 nM 10-Cl-BBQ (10-chloro-7H-benzimidazo[2,1-a]benz[de]isoquinolin-7-one, (Tocris, Minneapolis, MN, USA). Duplicate cell plates with 40 μL cells/well along with various concentrations of compounds were kept in Nunc™ Square BioAssay Dishes (Thermo Fisher Scientific) at 98% relative humidity in a 5% C02 incubator at 37° C. for 6 days. On day 7, plates were moved to ambient lab conditions for 10 minutes until the temperature equilibrated. Following equilibration, CellTiter-Glo® Luminescent Cell Viability Assay reagent (Promega™, Madison, WI, USA) was added (15 μL) to each well of the plates. After a 20 minutes incubation, luminescence was detected using a ViewLux™ microplate imager (PerkinElmer, Waltham, MA, USA). Data analysis was performed using GraphPad Prism (Dotmatics, Boston, MA, USA).

DLD-1 parent cells = experiment: CellTiter-Glo DLD-1 parent cell assay; format: cell-based; settings: 6 days, read-out: DLD-1 CTG EC50
Source text: (§1) The DLD-1 BRCA2 (−/−) CellTiter-Glo® assay measured the synthetic lethality of PARP1/2 inhibitors and was used as a surrogate to allow measurement of activity of both PARP1 and PARP2 in cells. If PARP1 and PARP2 are inhibited and are trapped onto chromatin during DNA replication, there is replication fork stalling and accumulation of double strand breaks. In BR CA wild-type cells, the resulting double strand DNA breaks are repaired via homologous recombination. In cells with mutation of BRCA1 or BRCA2, homologous recombination repair of DNA double strand breaks is defective, and cell death occurs after PARP1/2 inhibitor treatment (Lord C J, Ashworth A. PARP inhibitors: synthetic lethality in the clinic. Science. 2017 Mar. 17; 355(6330):1152-1158). Testing compounds in viability assays with the DLD-1-BR CA 2 (−/−) and DLD-1 parent cell enabled assessment on PARP1/2-dependent (cytotoxicity in the BRCA2 (−/−) cells only) vs. non-selective cytotoxicity in both cell lines.
(§2) Compound stock solutions (10 mM) were serially diluted in 3-fold increments in dimethyl sulfoxide (DMSO). Sample aliquots (120 nL) were dispensed into Corning® 384-well Flat Clear Bottom White Polystyrene TC-treated Microplates (Corning Life Sciences, Corning, NY, USA) using an ECHO® 550 acoustic Labcyte dispenser (Beckman-Coulter Life Sciences, Indianapolis, IN, USA) to achieve concentrations between 30 μM and 0.5 nM in the assay. In the assay, 40 μL of 500 DLD-1 parent cells (HORIZON® Therapeutics, Deerfield, IL, USA) or 40 μL of 1200 DLD-1-BRCA2 (−/−) cells (HORIZON Therapeutics) in complete growth medium containing RPMI 1640 growth medium (ThermoFisher Scientific, Waltham, MA, USA) supplemented with 20 mg/L L-glutamate, 25 mM HEPES (4-(2-hydroxyethyl)-1-piperazineethanesulfonic acid), 10% (v/v) heat inactivated FBS (fetal bovine serum), and 1% (w/v) Penicillin-Streptomycin were added.
(§3) Duplicate cell plates with 40 μL cells/well along with various concentrations of compounds were kept in Nunc™ Square BioAssay Dishes (Thermo Fisher Scientific) at 98% relative humidity in a 5% CO2 incubator at 37° C. for 6 days. On day 7, plates were moved to ambient lab conditions for 10 minutes until the temperature equilibrated. Following equilibration, CellTiter-Glo® Luminescent Cell Viability Assay reagent (Promega™, Madison, WI, USA) was added (15 μL) to each well of the plates. After a 20 minutes incubation, luminescence was detected using a ViewLux™ microplate imager (PerkinElmer, Waltham, MA, USA). Data analysis was performed using GraphPad Prism (Dotmatics, Boston, MA, USA).

DLD-1 BRCA2 (−/−) cells = experiment: CellTiter-Glo DLD-1 BRCA2 (−/−) cell assay for PARP1/2 inhibition; format: cell-based; settings: 6 days, read-out: DLD-1 BRCA2 (−/−) CTG EC50
Source text: as §1, §2, §3

PARP1 GST, sequence (P09874 whole entry): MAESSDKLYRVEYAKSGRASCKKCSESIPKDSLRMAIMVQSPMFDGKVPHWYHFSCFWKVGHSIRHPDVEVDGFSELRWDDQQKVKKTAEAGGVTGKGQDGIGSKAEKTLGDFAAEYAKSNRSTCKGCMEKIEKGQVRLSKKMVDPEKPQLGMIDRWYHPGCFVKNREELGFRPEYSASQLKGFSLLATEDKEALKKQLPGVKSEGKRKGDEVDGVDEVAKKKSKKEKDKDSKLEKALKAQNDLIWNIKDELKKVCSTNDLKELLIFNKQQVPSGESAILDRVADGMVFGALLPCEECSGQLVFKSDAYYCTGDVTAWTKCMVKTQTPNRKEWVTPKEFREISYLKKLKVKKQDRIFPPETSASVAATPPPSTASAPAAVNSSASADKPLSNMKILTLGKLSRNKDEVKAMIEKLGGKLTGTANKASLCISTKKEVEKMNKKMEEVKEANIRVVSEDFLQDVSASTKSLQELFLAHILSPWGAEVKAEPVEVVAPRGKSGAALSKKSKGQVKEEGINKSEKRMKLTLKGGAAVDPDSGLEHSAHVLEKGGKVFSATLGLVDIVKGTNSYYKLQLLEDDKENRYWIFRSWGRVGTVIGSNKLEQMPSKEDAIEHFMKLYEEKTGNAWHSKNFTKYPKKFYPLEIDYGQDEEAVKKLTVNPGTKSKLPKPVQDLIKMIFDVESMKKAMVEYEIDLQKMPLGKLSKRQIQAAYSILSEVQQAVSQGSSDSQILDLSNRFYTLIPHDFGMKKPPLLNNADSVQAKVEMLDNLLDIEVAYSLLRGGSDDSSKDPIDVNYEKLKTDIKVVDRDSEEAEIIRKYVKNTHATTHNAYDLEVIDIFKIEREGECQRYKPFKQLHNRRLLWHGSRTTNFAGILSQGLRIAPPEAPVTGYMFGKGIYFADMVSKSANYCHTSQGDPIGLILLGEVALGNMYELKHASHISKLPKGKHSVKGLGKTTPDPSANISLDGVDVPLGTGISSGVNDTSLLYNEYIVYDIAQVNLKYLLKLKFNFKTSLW
TIPARP GST-(TEV), sequence (Q7Z3E1 441-657): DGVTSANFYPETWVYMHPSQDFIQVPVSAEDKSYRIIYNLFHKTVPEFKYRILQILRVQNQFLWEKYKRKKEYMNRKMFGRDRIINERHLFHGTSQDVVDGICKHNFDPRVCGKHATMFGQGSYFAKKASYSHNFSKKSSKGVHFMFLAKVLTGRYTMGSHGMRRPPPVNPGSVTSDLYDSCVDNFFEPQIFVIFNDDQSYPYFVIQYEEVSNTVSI

Compound	IC50 (TIPARP GST-(TEV)) [nM]	PARP1/TIPARP IC50 Ratio (TIPARP GST-(TEV))	IC50 (PARP1 GST) [nM]	EC50 (NCI-H1373 cells) [nM]	EC50 (DLD-1 parent cells) [nM]	EC50 (DLD-1 BRCA2 (−/−) cells) [nM]	EC50 (NCI-H1373 cells; Homo sapiens, NCI-H1373, 144 h) [nM]	EC50 (DLD-1 parent cells; Homo sapiens, 144 h) [nM]	EC50 (DLD-1 BRCA2 (−/−) cells; Homo sapiens, 144 h) [nM]
C[C@@H]1CN(c2ncc(C(F)(F)F)cn2)CCN1C(=O)[C@H]1C[C@H](c2c[nH]c(=O)c(C(F)(F)F)c2)C1 [Example 25, 5-[(1R,3r)-3-{(2R)-2-methyl-4-[5-(trifluoromethyl)pyrimidin-2-yl]piperazine-1-carbonyl}cyclobutyl]-3-(trifluoromethyl)pyridin-2(1H)-one]	2000	1.02	2030	10200	> 30000	> 30000	–	–	–
C[C@H]1CN(C(=O)[C@H]2C[C@@H](Cc3c[nH]c(=O)c(C(F)(F)F)c3)C2)CCN1c1ncc(C(C)(C)O)cn1 [Example 20, 5-{[(1R,3s)-3-{(3S)-4-[5-(2-hydroxypropan-2-yl)pyrimidin-2-yl]-3-methylpiperazine-1-carbonyl}cyclobutyl]methyl}-3-(trifluoromethyl)pyridin-2(1H)-one]	6.95	306	2130	–	–	–	81.7	> 30000	3000
O=c1[nH]cc(C[C@H]2C[C@@H](C(=O)N3CCN(c4ncc(C(F)(F)F)cn4)CC3)C2)cc1C(F)(F)F [Example 29, 3-(trifluoromethyl)-5-{[(1s,3s)-3-{4-[5-(trifluoromethyl)pyrimidin-2-yl]piperazine-1-carbonyl}cyclobutyl]methyl}pyridin-2(1H)-one]	1.75	150	263	18.2	5960	230	–	–	–
C[C@@H]1CN(c2ncc(C(F)(F)F)cn2)C[C@H](C)N1C(=O)[C@H]1C[C@@H](Cc2c[nH]c(=O)c(C(F)(F)F)c2)C1 [Example 13, 5-{[(1s,3s)-3-{(2R,6S)-2,6-dimethyl-4-[5-(trifluoromethyl)pyrimidin-2-yl]piperazine-1-carbonyl}cyclobutyl]methyl}-3-(trifluoromethyl)pyridin-2(1H)-one]	3.79	1950	7380	–	–	–	33.3	11100	6960
C[C@@H]1CN(C(=O)[C@H]2C[C@@H](Cc3c[nH]c(=O)c(C(F)(F)F)c3)C2)C[C@H](C)N1c1ncc(C(F)(F)F)cn1 [Example 14, 5-{[(1s,3s)-3-{(3R,5S)-3,5-dimethyl-4-[5-(trifluoromethyl)pyrimidin-2-yl]piperazine-1-carbonyl}cyclobutyl]methyl}-3-(trifluoromethyl)pyridin-2(1H)-one]	2.17	1890	4110	–	–	–	10.9	14300	4490
C[C@@H]1CN(C(=O)[C@H]2C[C@@H](Cc3c[nH]c(=O)c(C(F)(F)F)c3)C2)CCN1c1ncc(C(C)(C)O)cn1 [Example 18, 5-{[(1S,3s)-3-{(3R)-4-[5-(2-hydroxypropan-2-yl)pyrimidin-2-yl]-3-methylpiperazine-1-carbonyl}cyclobutyl]methyl}-3-(trifluoromethyl)pyridin-2(1H)-one]	5.86	149	871	–	–	–	66.7	12000	1050
C[C@H]1CN(C(=O)[C@H]2C[C@@H](c3c[nH]c(=O)c(C(F)(F)F)c3)C2)CCN1c1ncc(C(F)(F)F)cn1 [Example 8, 5-[(1R,3s)-3-{(3S)-3-methyl-4-[5-(trifluoromethyl)pyrimidin-2-yl]piperazine-1-carbonyl}cyclobutyl]-3-(trifluoromethyl)pyridin-2(1H)-one]	8.79	137	1200	–	–	–	55.9	> 30000	5730
